# Source: patent publication US7803930B2, “Antisense modulation of apolipoprotein B-expression” (Isis Pharmaceuticals, Inc., priority 2002, dated 2010)
# What was measured:
# [1] = High fat fed C57BL/6 mice, 6 week timecourse: serum cholesterol, triglyceride, lipoprotein and glucose levels; assay type: in vivo, mouse; settings: for Percent Inhibition HDL / Percent Inhibition LDL / Percent Inhibition VLDL: negative = increase; for Percent Inhibition of serum cholesterol levels: normalized to saline control; for Triglycerides: study end (control 115 mg/dL); for serum cholesterol: study end (control 240 mg/dL); for serum glucose levels: study termination (saline control 300 mg/dL)
# Experimental: Male C57BL/6 mice (n=8) receiving a high fat diet (60% kcal fat) were evaluated over the course of 6 weeks for the effects of treatment with the antisense oligonucleotide, ISIS 147764. Control animals received saline treatment (50 mg/kg). A subset of animals received a daily oral dose (20 mg/kg) atorvastatin calcium (Lipitor®, Pfizer Inc.). All mice, except atorvastatin-treated animals, were dosed intraperitoneally every three days (twice a week), after fasting overnight, with 5, 25, 50 mg/kg ISIS 147764 (SEQ ID No: 109) or saline (50 mg/kg) for six weeks. Serum cholesterol and lipoproteins were analyzed at 0, 2 and 6 week interim timepoints. At study termination, animals were sacrificed 48 hours after the final injections and evaluated for levels of target mRNA levels in liver, cholesterol, lipoprotein, triglyceride, liver enzyme (AST and ALT) and serum glucose levels as well as body, liver, spleen and fat pad weights.
# (§1) Male C57BL/6 mice (n=8) receiving a high fat diet (60% kcal fat) were evaluated over the course of 6 weeks for the effects of ISIS 147764 on serum cholesterol and triglyceride levels. Control animals received saline treatment (50 mg/kg). Mice were dosed intraperitoneally every three days (twice a week), after fasting overnight, with 5, 25, 50 mg/kg ISIS 147764 (SEQ ID No: 109) or saline (50 mg/kg) for six weeks.
# Values in the table are expressed as percent inhibition and are normalized to the saline control.
# In addition to serum cholesterol, at study termination, animals were sacrificed 48 hours after the final injections and evaluated for triglyceride levels.
# as §1, with “lipoprotein (VLDL, LDL” for “serum cholesterol”, “HDL)” for “triglyceride”
# Values in the table are expressed as percent inhibition and are normalized to the saline control. Negative values indicate an observed increase in lipoprotein levels.
# as §1, with “glucose” for “cholesterol and triglyceride”
# At study termination, animals were sacrificed 48 hours after the final injections and evaluated for serum glucose levels. […] Mice treated with atorvastatin at a daily oral dose of 20 mg/kg had serum glucose levels of 215 mg/dL.
# [2] = Long-term study in lean Cynomolgous monkeys (Example 64): serum lipids by nuclear magnetic resonance spectroscopy; assay type: in vivo, Cynomolgous monkey; settings: one month
# Experimental: […] Saline-treated animals serve as controls. Each treatment group includes 2 to 3 animals of each sex.
# The results from the one month interval of the long term treatment are shown in Table 50 and are normalized to saline-treated animals for mRNA and to untreated baseline values for lipid levels. Total cholesterol, LDL-cholesterol, HDL-cholesterol, LDL particle concentration and triglyceride levels in serum were measured by nuclear magnetic resonance spectroscopy by Liposcience (Raleigh, N.C.). Additionally, the concentration of intact oligonucleotide in liver was measured by capillary gel electrophoresis and is presented as micrograms of oligonucleotide per gram of liver tissue. Each result represents the average of data from 4 animals (2 males and 2 females).
substance,measurement,setting,value
"GTCCCTGAAGATGTCAATGC (2'-MOE gapmer, further chemistry not given here) [ISIS 147764]",Percent Inhibition HDL,"[1]; 5 mg/kg i.p., 0 weeks",0%
same,Percent Inhibition LDL,"[1]; 5 mg/kg i.p., 0 weeks",0%
same,Percent Inhibition VLDL,"[1]; 5 mg/kg i.p., 0 weeks",0%
same,Percent Inhibition of serum cholesterol levels,"[1]; 5 mg/kg i.p., 0 weeks",0%
same,Percent Inhibition HDL,"[1]; 5 mg/kg i.p., 2 weeks",5%
same,Percent Inhibition LDL,"[1]; 5 mg/kg i.p., 2 weeks",−30%
same,Percent Inhibition VLDL,"[1]; 5 mg/kg i.p., 2 weeks",25%
same,Percent Inhibition of serum cholesterol levels,"[1]; 5 mg/kg i.p., 2 weeks",5%
same,Percent Inhibition HDL,"[1]; 5 mg/kg i.p., 6 weeks",10%
same,Percent Inhibition LDL,"[1]; 5 mg/kg i.p., 6 weeks",−10%
same,Percent Inhibition VLDL,"[1]; 5 mg/kg i.p., 6 weeks",10%
same,Percent Inhibition of serum cholesterol levels,"[1]; 5 mg/kg i.p., 6 weeks",10%
same,Triglycerides,[1]; 5 mg/kg,125 mg/dL
same,serum cholesterol,[1]; 5 mg/kg,225 mg/dL
same,serum glucose levels,[1]; 5 mg/kg,225 mg/dL
same,Percent Inhibition HDL,"[1]; 25 mg/kg i.p., 0 weeks",0%
same,Percent Inhibition LDL,"[1]; 25 mg/kg i.p., 0 weeks",0%
same,Percent Inhibition VLDL,"[1]; 25 mg/kg i.p., 0 weeks",0%
same,Percent Inhibition of serum cholesterol levels,"[1]; 25 mg/kg i.p., 0 weeks",0%
same,Percent Inhibition HDL,"[1]; 25 mg/kg i.p., 2 weeks",10%
same,Percent Inhibition LDL,"[1]; 25 mg/kg i.p., 2 weeks",10%
same,Percent Inhibition VLDL,"[1]; 25 mg/kg i.p., 2 weeks",30%
same,Percent Inhibition of serum cholesterol levels,"[1]; 25 mg/kg i.p., 2 weeks",12%
same,Percent Inhibition HDL,"[1]; 25 mg/kg i.p., 6 weeks",45%
same,Percent Inhibition LDL,"[1]; 25 mg/kg i.p., 6 weeks",55%
same,Percent Inhibition VLDL,"[1]; 25 mg/kg i.p., 6 weeks",−30%
same,Percent Inhibition of serum cholesterol levels,"[1]; 25 mg/kg i.p., 6 weeks",45%
same,Triglycerides,[1]; 25 mg/kg,150 mg/dL
same,serum cholesterol,[1]; 25 mg/kg,125 mg/dL
same,serum glucose levels,[1]; 25 mg/kg,190 mg/dL
same,lowering of serum lipoproteins compared to atorvastatin,[1]; 50 mg/kg,lowering all categories of serum lipoproteins investigated to a greater extent than atorvastatin
same,Percent Inhibition HDL,"[1]; 50 mg/kg i.p., 0 weeks",0%
same,Percent Inhibition LDL,"[1]; 50 mg/kg i.p., 0 weeks",0%
same,Percent Inhibition VLDL,"[1]; 50 mg/kg i.p., 0 weeks",0%
same,Percent Inhibition of serum cholesterol levels,"[1]; 50 mg/kg i.p., 0 weeks",0%
same,Percent Inhibition HDL,"[1]; 50 mg/kg i.p., 2 weeks",10%
same,Percent Inhibition LDL,"[1]; 50 mg/kg i.p., 2 weeks",40%
same,Percent Inhibition VLDL,"[1]; 50 mg/kg i.p., 2 weeks",40%
same,Percent Inhibition of serum cholesterol levels,"[1]; 50 mg/kg i.p., 2 weeks",20%
same,Percent Inhibition HDL,"[1]; 50 mg/kg i.p., 6 weeks",50%
same,Percent Inhibition LDL,"[1]; 50 mg/kg i.p., 6 weeks",90%
same,Percent Inhibition VLDL,"[1]; 50 mg/kg i.p., 6 weeks",15%
same,Percent Inhibition of serum cholesterol levels,"[1]; 50 mg/kg i.p., 6 weeks",55%
same,Triglycerides,[1]; 50 mg/kg,85 mg/dL
same,serum cholesterol,[1]; 50 mg/kg,110 mg/dL
same,serum glucose levels,[1]; 50 mg/kg,180 mg/dL
"ISIS 301012: SEQ ID NO: 247, antisense oligonucleotide targeted to human apolipoprotein B (antisense GCCTCAGTCTGCTTCGCACC; chemistry not given here)","HDL-cholesterol, % change normalized to untreated baseline value",[2]; intravenous 2 mg/kg,−23%
same,"LDL Particle concentration, % change normalized to untreated baseline value",[2]; intravenous 2 mg/kg,+8%
same,"LDL-cholesterol, % change normalized to untreated baseline value",[2]; intravenous 2 mg/kg,+15%
same,"LDL/HDL, % change normalized to untreated baseline value",[2]; intravenous 2 mg/kg,+94%
same,"Total cholesterol, % change normalized to untreated baseline value",[2]; intravenous 2 mg/kg,−6%
same,"Total cholesterol/HDL, % change normalized to untreated baseline value",[2]; intravenous 2 mg/kg,+44%
same,"Triglyceride, % change normalized to untreated baseline value",[2]; intravenous 2 mg/kg,+26%
same,"HDL-cholesterol, % change normalized to untreated baseline value",[2]; intravenous 4 mg/kg,−15%
same,"LDL Particle concentration, % change normalized to untreated baseline value",[2]; intravenous 4 mg/kg,+8%
same,"LDL-cholesterol, % change normalized to untreated baseline value",[2]; intravenous 4 mg/kg,+9%
same,"LDL/HDL, % change normalized to untreated baseline value",[2]; intravenous 4 mg/kg,+38%
same,"Total cholesterol, % change normalized to untreated baseline value",[2]; intravenous 4 mg/kg,−2%
same,"Total cholesterol/HDL, % change normalized to untreated baseline value",[2]; intravenous 4 mg/kg,+22%
same,"Triglyceride, % change normalized to untreated baseline value",[2]; intravenous 4 mg/kg,+32%
same,"HDL-cholesterol, % change normalized to untreated baseline value",[2]; intravenous 12 mg/kg,−8%
same,"LDL Particle concentration, % change normalized to untreated baseline value",[2]; intravenous 12 mg/kg,−11%
same,"LDL-cholesterol, % change normalized to untreated baseline value",[2]; intravenous 12 mg/kg,+3%
same,"LDL/HDL, % change normalized to untreated baseline value",[2]; intravenous 12 mg/kg,+44%
same,"Total cholesterol, % change normalized to untreated baseline value",[2]; intravenous 12 mg/kg,−2%
same,"Total cholesterol/HDL, % change normalized to untreated baseline value",[2]; intravenous 12 mg/kg,+21%
same,"Triglyceride, % change normalized to untreated baseline value",[2]; intravenous 12 mg/kg,+15%
same,"HDL-cholesterol, % change normalized to untreated baseline value",[2]; subcutaneous 3.5 mg/kg,+13%
same,"LDL Particle concentration, % change normalized to untreated baseline value",[2]; subcutaneous 3.5 mg/kg,−14%
same,"LDL-cholesterol, % change normalized to untreated baseline value",[2]; subcutaneous 3.5 mg/kg,−4%
same,"LDL/HDL, % change normalized to untreated baseline value",[2]; subcutaneous 3.5 mg/kg,−15%
same,"Total cholesterol, % change normalized to untreated baseline value",[2]; subcutaneous 3.5 mg/kg,+5%
same,"Total cholesterol/HDL, % change normalized to untreated baseline value",[2]; subcutaneous 3.5 mg/kg,−7%
same,"Triglyceride, % change normalized to untreated baseline value",[2]; subcutaneous 3.5 mg/kg,+1%
same,"HDL-cholesterol, % change normalized to untreated baseline value",[2]; subcutaneous 20 mg/kg,+5%
same,"LDL Particle concentration, % change normalized to untreated baseline value",[2]; subcutaneous 20 mg/kg,−21%
same,"LDL-cholesterol, % change normalized to untreated baseline value",[2]; subcutaneous 20 mg/kg,−16%
same,"LDL/HDL, % change normalized to untreated baseline value",[2]; subcutaneous 20 mg/kg,−19%
same,"Total cholesterol, % change normalized to untreated baseline value",[2]; subcutaneous 20 mg/kg,−5%
same,"Total cholesterol/HDL, % change normalized to untreated baseline value",[2]; subcutaneous 20 mg/kg,−10%
same,"Triglyceride, % change normalized to untreated baseline value",[2]; subcutaneous 20 mg/kg,−3%
